{"source": "patent US9663525B2", "about": "“Pyrazolopyrimidinyl inhibitors of ubiquitin-activating enzyme” (Millennium Pharmaceuticals, Inc., priority 2012, dated 2017)", "data": [{"molecular_target": "recombinant human UAE (Homo sapiens (Human), UniProt P22314)", "sequence (P22314 whole entry)": "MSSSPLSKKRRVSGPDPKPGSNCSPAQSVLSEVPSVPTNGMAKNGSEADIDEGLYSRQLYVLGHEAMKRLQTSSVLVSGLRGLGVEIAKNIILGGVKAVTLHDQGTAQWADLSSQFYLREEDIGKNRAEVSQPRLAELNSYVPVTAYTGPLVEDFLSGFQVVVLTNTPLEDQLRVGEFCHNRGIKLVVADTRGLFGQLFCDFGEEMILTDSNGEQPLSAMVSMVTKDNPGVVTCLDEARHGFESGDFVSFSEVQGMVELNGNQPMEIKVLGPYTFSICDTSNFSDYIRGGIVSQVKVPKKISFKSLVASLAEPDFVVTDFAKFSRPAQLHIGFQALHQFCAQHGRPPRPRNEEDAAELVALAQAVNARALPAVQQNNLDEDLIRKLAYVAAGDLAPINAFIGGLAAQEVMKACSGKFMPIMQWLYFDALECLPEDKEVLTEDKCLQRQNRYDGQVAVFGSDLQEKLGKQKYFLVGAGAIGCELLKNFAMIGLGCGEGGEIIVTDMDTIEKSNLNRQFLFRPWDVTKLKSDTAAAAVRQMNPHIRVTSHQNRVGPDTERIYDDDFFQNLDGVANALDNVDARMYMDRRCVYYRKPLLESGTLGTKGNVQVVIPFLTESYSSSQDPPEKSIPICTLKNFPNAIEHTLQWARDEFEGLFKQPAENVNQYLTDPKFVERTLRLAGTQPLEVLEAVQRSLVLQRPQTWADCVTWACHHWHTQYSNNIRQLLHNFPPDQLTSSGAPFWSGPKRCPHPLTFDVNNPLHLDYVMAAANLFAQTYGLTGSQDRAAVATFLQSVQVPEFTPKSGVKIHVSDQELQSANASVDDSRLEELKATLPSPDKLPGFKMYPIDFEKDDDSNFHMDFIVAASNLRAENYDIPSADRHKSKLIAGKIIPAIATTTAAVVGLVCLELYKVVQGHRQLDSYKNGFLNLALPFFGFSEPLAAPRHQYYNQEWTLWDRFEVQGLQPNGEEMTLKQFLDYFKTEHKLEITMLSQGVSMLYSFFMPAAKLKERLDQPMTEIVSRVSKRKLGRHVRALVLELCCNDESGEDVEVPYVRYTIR", "assay": "Ubiquitin Activating Enzyme (UAE) HTRF assay, human UAE", "conditions": "not given", "units": {"IC50": "nM"}, "values": [{"compound": "Cc1ccc(Cl)cc1-c1cc2nccc(N[C@@H]3C[C@H](COS(N)(=O)=O)[C@@H](O)[C@H]3O)n2n1", "note": "(racemic) [Compound I-021, (rac)-((1R,2R,3S,4R)-4-(2-(5-chloro-2-methylphenyl)pyrazolo[1,5-a]pyrimidin-7-ylamino)-2,3-dihydroxycyclopentyl)methyl rel-sulfamate]", "IC50": "< 10"}, {"compound": "Cc1cc(N[C@@H]2C[C@H](COS(N)(=O)=O)[C@@H](O)[C@H]2O)n2nc(-c3ccccc3)cc2n1", "note": "(relative stereo) [Compound I-004, (rac)-{(1R,2R,3S,4R)-2,3-dihydroxy-4-[(5-methyl-2-phenylpyrazolo[1,5-a]pyrimidin-7-yl)amino]cyclopentyl}methyl rel-sulfamate]", "IC50": "100 to 1000"}, {"compound": "NS(=O)(=O)OC[C@H]1C[C@@H](Nc2ccnc3cc(-c4cccc(-c5ccccn5)c4)nn23)[C@H](O)[C@@H]1O", "note": "(racemic) [Compound I-036, (rac)-((1R,2R,3S,4R)-2,3-Dihydroxy-4-((2-(3-(pyridin-2-yl)phenyl)pyrazolo[1,5-a]pyrimidin-7-yl)amino)cyclopentyl)methyl rel-sulfamate]", "IC50": "< 10"}, {"compound": "NS(=O)(=O)OC[C@H]1C[C@@H](Nc2ccnc3cc(-c4ccc5c(c4)oc4ccccc45)nn23)[C@H](O)[C@@H]1O", "note": "(racemic) [Compound I-093, (rac)-((1R,2R,3S,4R)-4-(2-(dibenzo[b,d]furan-3-yl)pyrazolo[1,5-a]pyrimidin-7-ylamino)-2,3-dihydroxycyclopentyl)methyl rel-sulfamate]", "IC50": "< 10"}, {"compound": "CCCOC(C)(C)c1cccc(-c2cc3nccc(N[C@@H]4C[C@H](COS(N)(=O)=O)[C@@H](O)[C@H]4O)n3n2)c1", "note": "(racemic) [Compound I-090, (rac)-((1R,2R,3S,4R)-2,3-dihydroxy-4-(2-(3-(2-propoxypropan-2-yl)phenyl)pyrazolo[1,5-a]pyrimidin-7-ylamino)cyclopentyl)methyl rel-sulfamate]", "IC50": "< 10"}, {"compound": "NS(=O)(=O)OC[C@H]1C[C@@H](Nc2c(Cl)cnc3c(Cl)c(-c4cccc(SC(F)(F)F)c4)nn23)[C@H](O)[C@@H]1O", "note": "[Compound I-124, (s.e.)-{(1R,2R,3S,4R)-4-[(3,6-dichloro-2-{3-[(trifluoromethyl)sulfanyl]phenyl}pyrazolo[1,5-a]pyrimidin-7-yl)amino]-2,3-dihydroxycyclopentyl}methyl sulfamate]", "IC50": "100 to 1000"}, {"compound": "NS(=O)(=O)OC[C@H]1C[C@@H](Nc2ccnc3cc(-c4ccc(SC(F)(F)F)cc4)nn23)[C@H](O)[C@@H]1O", "note": "(racemic) [Compound I-080, (rac)-((1R,2R,3S,4R)-2,3-dihydroxy-4-(2-(4-(trifluoromethylthio)phenyl)pyrazolo[1,5-a]pyrimidin-7-ylamino)cyclopentyl)methyl rel-sulfamate]", "IC50": "10 to 100"}, {"compound": "CC1(C)COc2c(-c3cc4nccc(N[C@@H]5C[C@H](COS(N)(=O)=O)[C@@H](O)[C@H]5O)n4n3)cccc21", "note": "(racemic) [Compound I-023, (rac)-((1R,2R,3S,4R)-4-(2-(3,3-dimethyl-2,3-dihydrobenzofuran-7-yl)pyrazolo[1,5-a]pyrimidin-7-ylamino)-2,3-dihydroxycyclopentyl)methyl rel-sulfamate]", "IC50": "10 to 100"}, {"compound": "NS(=O)(=O)OC[C@H]1C[C@@H](Nc2ccnc3cc(-c4cccc5cccnc45)nn23)[C@H](O)[C@@H]1O", "note": "(racemic) [Compound I-017, (rac)-((1R,2R,3S,4R)-2,3-Dihydroxy-4-((2-(quinolin-8-yl)pyrazolo[1,5-a]pyrimidin-7-yl)amino)cyclopentyl)methyl rel-sulfamate]", "IC50": "< 10"}, {"compound": "NS(=O)(=O)OC[C@H]1C[C@@H](Nc2ccnc3cc(-c4c[nH]c5cc(Cl)ccc45)nn23)[C@H](O)[C@@H]1O", "note": "(racemic) [Compound I-055, (rac)-[(1R,2R,3S,4R)-4-{[2-(6-chloro-1H-indol-3-yl)pyrazolo[1,5-a]pyrimidin-7-yl]amino}-2,3-dihydroxycyclopentyl]methyl rel-sulfamate]", "IC50": "< 10"}, {"compound": "NS(=O)(=O)OC[C@H]1C[C@@H](Nc2ccnc3cc(-c4ccc5ccccc5n4)nn23)[C@H](O)[C@@H]1O", "note": "(racemic) [Compound I-042, (rac)-((1R,2R,3S,4R)-2,3-dihydroxy-4-(2-(quinolin-2-yl)pyrazolo[1,5-a]pyrimidin-7-ylamino)cyclopentyl)methyl rel-sulfamate]", "IC50": "< 10"}, {"compound": "NS(=O)(=O)OC[C@H]1C[C@@H](Nc2ccnc3cc(-c4cccc(Oc5ccccc5)c4)nn23)[C@H](O)[C@@H]1O", "note": "(racemic) [Compound I-051, (rac)-((1R,2R,3S,4R)-2,3-Dihydroxy-4-((2-(3-phenoxyphenyl)pyrazolo[1,5-a]pyrimidin-7-yl)amino)cyclopentyl)methyl rel-sulfamate]", "IC50": "10 to 100"}, {"compound": "NS(=O)(=O)OC[C@H]1C[C@@H](Nc2ccnc3cc(-c4c(Cl)cc(Cl)c5ccccc45)nn23)[C@H](O)[C@@H]1O", "note": "[Compound I-117, (s.e.)-((1R,2R,3S,4R)-4-(2-(2,4-dichloronaphthalen-1-yl)pyrazolo[1,5-a]pyrimidin-7-ylamino)-2,3-dihydroxycyclopentyl)methyl sulfamate]", "IC50": "10 to 100"}, {"compound": "NS(=O)(=O)OC[C@H]1C[C@@H](Nc2cc(Cl)nc3cc(-c4ccc(Br)cc4)nn23)[C@H](O)[C@@H]1O", "note": "(racemic) [Compound I-008, (rac)-((1R,2R,3S,4R)-4-(2-(4-bromophenyl)-5-chloropyrazolo[1,5-a]pyrimidin-7-ylamino)-2,3-dihydroxycyclopentyl)methyl rel-sulfamate]", "IC50": "100 to 1000"}, {"compound": "C[Si](C)(C)c1cccc(-c2cc3nccc(N[C@@H]4C[C@H](COS(N)(=O)=O)[C@@H](O)[C@H]4O)n3n2)c1", "note": "(racemic) [Compound I-035, (rac)-((1R,2R,3S,4R)-2,3-dihydroxy-4-(2-(3-(trimethylsilyl)phenyl)pyrazolo[1,5-a]pyrimidin-7-ylamino)cyclopentyl)methyl rel-sulfamate]", "IC50": "< 10"}, {"compound": "NS(=O)(=O)OC[C@H]1C[C@@H](Nc2ccnc3cc(-c4c[nH]c5ccc(Cl)cc45)nn23)[C@H](O)[C@@H]1O", "note": "(racemic) [Compound I-054, (rac)-[(1R,2R,3S,4R)-4-{[2-(5-chloro-1H-indol-3-yl)pyrazolo[1,5-a]pyrimidin-7-yl]amino}-2,3-dihydroxycyclopentyl]methyl rel-sulfamate]", "IC50": "< 10"}, {"compound": "NS(=O)(=O)OC[C@H]1C[C@@H](Nc2ccnc3cc(-c4ccc5c(c4)C(=O)c4ccccc4-5)nn23)[C@H](O)[C@@H]1O", "note": "(racemic) [Compound I-085, (rac)-((1R,2R,3S,4R)-2,3-dihydroxy-4-(2-(9-oxo-9H-fluoren-2-yl)pyrazolo[1,5-a]pyrimidin-7-ylamino)cyclopentyl)methyl rel-sulfamate]", "IC50": "< 10"}]}, {"molecular_target": "recombinant human UAE (Homo sapiens (Human), UniProt P22314)", "assay": "Ubiquitin Activating Enzyme (UAE) HTRF assay, human UAE", "conditions": "human UAE", "units": {"IC50": "nM"}, "values": [{"compound": "CC(C)Oc1ccc2ccccc2c1-c1cc2nccc(N[C@@H]3C[C@H](COS(N)(=O)=O)[C@@H](O)[C@H]3O)n2n1", "note": "[Compound I-109, (s.e.)-((1R,2R,3S,4R)-2,3-dihydroxy-4-(2-(2-isopropoxynaphthalen-1-yl)pyrazolo[1,5-a]pyrimidin-7-ylamino)cyclopentyl)methyl sulfamate]", "IC50": "< 10"}, {"compound": "NS(=O)(=O)OC[C@H]1C[C@@H](Nc2ccnc3cc(-c4c(OC(F)F)ccc5ccccc45)nn23)[C@H](O)[C@@H]1O", "note": "[Compound I-110, (s.e.)-((1R,2R,3S,4R)-4-(2-(2-(difluoromethoxy)naphthalen-1-yl)pyrazolo[1,5-a]pyrimidin-7-ylamino)-2,3-dihydroxycyclopentyl)methyl sulfamate]", "IC50": "< 10"}]}]}
